Broadly, the inhibition is the drop in the measured response relative to a control, in per cent.

Active and inactive are the calls of the source. No cut-off for these calls is given here.

This note sets out measurements from ChEMBL document CHEMBL4007424, “Design and Synthesis of Enantiomerically Pure Decahydroquinoxalines as Potent and Selective κ-Opioid Receptor Agonists with Anti-Inflammatory Activity in Vivo” (J Med Chem, 2017).

Data set [1] has as its system Rattus norvegicus. Put plainly: Toxicity in Wistar Han rat assessed as severe cramped posture at 5 mg/kg, iv after 1 hr. Type of data set: organism-based. The following applies: in vivo.
Data set [2] has as its system Rattus norvegicus. Kind of data set: Toxicity in Wistar Han rat assessed as severe lethargy at 5 mg/kg, iv after 1 hr. The class given is organism-based. The conditions noted are these: in vivo.
The nature of data set [3]: Drug level in Wistar Han rat brain at 5 mg/kg, iv measured 1 hr post compound administration. The class given is ADME, organism-based. The following applies: read-out: Drug uptake.
Data set [4] deals with Rattus norvegicus. Put plainly: Toxicity in Wistar Han rat assessed as flat posture at 5 mg/kg, iv after 1 hr. Type of data set: organism-based. The conditions noted are these: in vivo.
Data set [5] can be described thus: Plasma concentration in Wistar Han rat at 5 mg/kg, iv measured 0.25 hrs post compound administration. The class given is ADME, organism-based.
In data set [6] the test system is Rattus norvegicus. Kind of data set: Toxicity in Wistar Han rat assessed as severe cramped posture at 5 mg/kg, iv after 0.25 hrs. Type of data set: organism-based. The following applies: in vivo.
Data set [7] deals with Rattus norvegicus. Put plainly: Toxicity in Wistar Han rat assessed as flat posture at 5 mg/kg, iv after 0.25 hrs. The class given is organism-based. The conditions noted are these: in vivo.
Data set [8] has as its system Rattus norvegicus. Put plainly: Toxicity in Wistar Han rat assessed as moderate extension spasms of the tail at 5 mg/kg, iv after 1 hr. The class given is organism-based. The conditions noted are these: in vivo.
The test system of data set [9] is Rattus norvegicus. Kind of data set: Toxicity in Wistar Han rat assessed as moderate extension spasms of the tail at 5 mg/kg, iv after 0.25 hrs. Type of data set: organism-based. The conditions noted are these: in vivo.
In data set [10] the test system is Rattus norvegicus. Put plainly: Toxicity in Wistar Han rat assessed as moderate tonic spasms at 5 mg/kg, iv after 0.25 hrs. Type of data set: organism-based. The following applies: in vivo.
The test system of data set [11] is Rattus norvegicus. Kind of data set: Toxicity in Wistar Han rat assessed as severe lethargy at 5 mg/kg, iv after 0.25 hrs. Type of data set: organism-based. The following applies: in vivo.
Data set [12] deals with Rattus norvegicus. Put plainly: Toxicity in Wistar Han rat assessed as moderate tonic spasms at 5 mg/kg, iv after 1 hr. The class given is organism-based. The following applies: in vivo.
Data set [13] in a line: Ratio of drug level in brain to plasma in Wistar Han rat at 5 mg/kg, iv after 1 hr. The class given is ADME, organism-based. The following applies: read-out: BPR.
A short description of data set [14]: Plasma concentration in Wistar Han rat at 5 mg/kg, iv measured 1 hr post compound administration. The class given is ADME, organism-based.
Data set [15] can be described thus: Ratio of drug level in brain to plasma in Wistar Han rat at 1 mg/kg, iv after 1 hr. Type of data set: ADME, organism-based. The following applies: read-out: BPR.
For data set [16], the system named is Rattus norvegicus. Kind of data set: Toxicity in Wistar Han rat assessed as induction of slight lethargy at 1 mg/kg, iv after 0.25 hrs. The class given is organism-based. The conditions noted are these: in vivo.
The nature of data set [17]: Plasma concentration in Wistar Han rat at 1 mg/kg, iv measured 0.25 hrs post compound administration. The class given is ADME, organism-based.
For data set [18], the system named is Rattus norvegicus. Kind of data set: Toxicity in Wistar Han rat assessed as induction of slight lethargy at 5 mg/kg, iv after 1 hr. Type of data set: organism-based. The following applies: in vivo.
The nature of data set [19]: Plasma concentration in Wistar Han rat at 1 mg/kg, iv measured 1 hr post compound administration. Type of data set: ADME, organism-based.
Data set [20] can be described thus: (§1) Drug level in Wistar Han rat brain at 1 mg/kg, iv measured 1 hr post compound administration. Type of data set: ADME, organism-based. The conditions noted are these: Wistar Han, brain, read-out: Drug uptake.
Data set [21] deals with Rattus norvegicus. Kind of data set: Toxicity in Wistar Han rat assessed as clinical signs changes at 1 mg/kg, iv after 1 hr. Type of data set: organism-based. The following applies: in vivo.
The subject of data set [22] is Rattus norvegicus. Kind of data set: Toxicity in Wistar Han rat assessed as assessed as clinical signs changes at 5 mg/kg, iv after 1 hr. The class given is organism-based. The following applies: in vivo.
For another data set, the system named is Brain. The data set is described as §1. The class given is ADME, organism-based. The conditions noted are these: in vivo, 1 h, BLD = below limit of detection.
Data set [23] relates to Mus musculus. Put plainly: Antiinflammatory activity in oxazolone-induced delayed type hypersensitivity BALB/c mouse model assessed as reduction in edema formation at 0.5 and 2.5 mg applied topically on ear administered 3 hrs prior to oxazolone challenge on day 7 to 12 post sensitization followed by re-administration of compound on day 13 to 18 without oxazolone challenge measured on day 19 by H and E staining based assay. The class given is functional.

Data set [24] concerns Mus musculus. Put plainly: Antiinflammatory activity in tropically applied arachidonic acid-induced ear dermatitis ICR mouse model assessed as reduction in ear swelling administered 30 mins prior and 15 mins after arachidonic acid addition measured 60 mins post arachidonic acid challenge. The class given is functional.
Data set [25] relates to Mus musculus. Put plainly: Antiinflammatory activity in oxazolone-induced delayed type hypersensitivity BALB/c mouse model assessed as effect on ear weight at 0.5 and 2.5 mg applied topically on ear administered 3 hrs prior to oxazolone challenge on day 7 to 12 post sensitization followed by re-administration of compound on day 13 to 18 without oxazolone challenge measured on day 19. Type of data set: functional.

The subject of data set [26] is Mus musculus. Put plainly: Antiinflammatory activity in oxazolone-induced delayed type hypersensitivity BALB/c mouse model assessed as hyperplastic epidrmis at 0.5 and 2.5 mg applied topically on ear administered 3 hrs prior to oxazolone challenge on day 7 to 12 post sensitization followed by re-administration of compound on day 13 to 18 without oxazolone challenge measured on day 19 by H and E staining based assay. Type of data set: functional.

Data set [27] has as its system Mus musculus. Put plainly: Antiinflammatory activity in oxazolone-induced delayed type hypersensitivity BALB/c mouse model assessed as ear thickness at 0.5 mg applied topically on ear administered 3 hrs prior to oxazolone challenge on day 7 to 12 post sensitization followed by re-administration of compound on day 13 to 18 without oxazolone challenge measured on day 9 to 15. The class given is functional.

The species entered for the next data set is Sus scrofa. Put plainly: Displacement of [3H]-(+)-MK 801 from PCP binding site of NMDA receptor in pig brain cortex membranes at 10 uM after 120 mins by solid scintillation counting. Type of data set: cell membranes. In general terms: Displacement assays read how much labelled ligand stays bound in the presence of the test substance.
Data set [28] relates to Mus musculus. Kind of data set: Antiinflammatory activity in oxazolone-induced delayed type hypersensitivity BALB/c mouse model assessed as ear thickness at 2.5 mg applied topically on ear administered 3 hrs prior to oxazolone challenge on day 7 to 12 post sensitization followed by re-administration of compound on day 13 to 18 without oxazolone challenge measured on day 9 to 15. Type of data set: functional.

Data set [29] deals with Mus musculus. Kind of data set: Antiinflammatory activity in oxazolone-induced delayed type hypersensitivity BALB/c mouse model assessed as ear thickness at 0.5 mg applied topically on ear administered 3 hrs prior to oxazolone challenge on day 7 to 12 post sensitization followed by re-administration of compound on day 13 to 18 without oxazolone challenge measured after day 16. The class given is functional.

Data set [30] concerns Mus musculus. Put plainly: Antiinflammatory activity in oxazolone-induced delayed type hypersensitivity BALB/c mouse model assessed as effect on ear thickness at 0.5 and 2.5 mg applied topically on ear administered 3 hrs prior to oxazolone challenge on day 7 to 12 post sensitization followed by re-administration of compound on day 13 to 18 without oxazolone challenge measured on day 19 by H and E staining based assay. The class given is functional.

With `COC(=O)N1CCN(C(=O)Cc2ccc(F)c(Cl)c2)[C@@H]2[C@@H](N3CC[C@H](F)C3)CCC[C@@H]21.Cl`, the Activity entry with Rattus norvegicus [1], in the data set on Rattus norvegicus [2], in the data set on Rattus norvegicus [4], in the data set on Rattus norvegicus [6], in the data set on Rattus norvegicus [7] and in the data set with Rattus norvegicus [8] was “Toxic” in each case. Moreover, the Activity result in the data set with Rattus norvegicus [9], with Rattus norvegicus [10], in the data set with Rattus norvegicus [11] and with Rattus norvegicus [12] was “Toxic” in each case. Besides, the concentration at 1 h was found to be 86.6 ng/g in [3] and 811 ng/mL in data set [14]. This compound also had a concentration at 0.25 h in data set [5] of 3070 ng/mL. Moreover, the Kp at 1 h in data set [13] is 0.11.
Regarding `COC(=O)N1CCN(C(=O)Cc2ccc(Cl)c(Cl)c2)[C@@H]2[C@@H](N(C)C)CCC[C@@H]21.Cl`, in [15], the Kp at 1 h is 0.54. Moreover, the Activity entry in the data set on Rattus norvegicus [16] and with Rattus norvegicus [18] was “Toxic” throughout. For the same compound, the concentration at 0.25 h in [17] turned out to be 355 ng/mL. Moreover, the concentration at 1 h in data set [19] was 186 ng/mL; in data set [20], 101 ng/g.
For the compound `COC(=O)N1CCN(C(=O)Cc2ccc(Cl)c(Cl)c2)[C@@H]2[C@@H](N3CC[C@H](O)C3)CCC[C@@H]21.Cl`, the concentration at 1 h in data set [3] is 74.1 ng/g; in data set [19] it was 128 ng/mL; in [14] it was 669 ng/mL. Further, the Activity result with Rattus norvegicus [21] and in the data set with Rattus norvegicus [22] was “Non-Toxic” each time. The concentration at 0.25 h in data set [5] was found to be 1440 ng/mL; in data set [17], 599 ng/mL. The Kp at 1 h in data set [13] was determined as 0.11. The Drug uptake entry with Brain is reported as “Bld”.
As for `COC(=O)N1CCN(C(=O)Cc2ccc(Cl)c(Cl)c2)[C@@H]2[C@@H](N3CCCC3)CCC[C@@H]21`, the outcome in the data set on Mus musculus [23], in the data set on Mus musculus [26] and with Mus musculus [28] was Active. Further, the Activity result in the data set on Mus musculus [24] was “Dose-dependent effect”. The outcome in the data set on Mus musculus [25], with Mus musculus [27], with Mus musculus [29] and in the data set on Mus musculus [30] was inactive. The compound also displayed an inhibition in the data set listed under Sus scrofa of 2%.
